Experimental data as given in EP4667483A1, “HUMAN TRANSFERRIN RECEPTOR-BINDING PEPTIDE” (JCR Pharmaceuticals Co., Ltd., priority 2023, dated 2024).
Numbered stars: 1 amine (or outer) side, 2 acyl side, 3 side chain; on linkers, the order of the positions; unused ones are H or OH. Bridge positions count the residues as written; N and C are the ends. Square brackets hold non-standard residues; d marks the D form. Side chains are listed from the residue outwards. Peptide text beside a SMILES is read from it. * marks the point of attachment. Trp(1-CH2COOH) = N[C@@H](Cc1cn(CC(=O)O)c2ccccc12)C(=O)O; CH2CON(CH2CH2)2NCH2COOH = O=C(O)CN1CCN(C(=O)C*)CC1; Nle(6-morpholino) = N[C@@H](CCCCN1CCOCC1)C(=O)O; Trp(7-aza) = N[C@@H](Cc1c[nH]c2ncccc12)C(=O)O; NMePhe(3-Cl) = CN[C@@H](Cc1cccc(Cl)c1)C(=O)O; Piperazinyl(4-CH2COOH) = O=C(O)CN1CCN(*)CC1; 3Pal(6-NH2) = Nc1ccc(C[C@H](N)C(=O)O)cn1; NMeY = CN[C@@H](Cc1ccc(O)cc1)C(=O)O; 4Pal = N[C@@H](Cc1ccncc1)C(=O)O; PEG4 = NCCOCCOCCOCCOCCC(=O)O; Carboxymethyl = O=C(O)C*; CO = O=C([*:1])[*:2]

Experiments:
[1] = biological target: T1, human transferrin receptor (hTfR) (Homo sapiens, UniProt P02786); test: SPR measurement under pH 6.0 conditions (Biacore T200, NTA chip, immobilized hTfR); type: binding; conditions: pH 6.0, single-cycle kinetics; read-out: hTfR SPR pH6.0 KD
T1 sequence (P02786 whole entry): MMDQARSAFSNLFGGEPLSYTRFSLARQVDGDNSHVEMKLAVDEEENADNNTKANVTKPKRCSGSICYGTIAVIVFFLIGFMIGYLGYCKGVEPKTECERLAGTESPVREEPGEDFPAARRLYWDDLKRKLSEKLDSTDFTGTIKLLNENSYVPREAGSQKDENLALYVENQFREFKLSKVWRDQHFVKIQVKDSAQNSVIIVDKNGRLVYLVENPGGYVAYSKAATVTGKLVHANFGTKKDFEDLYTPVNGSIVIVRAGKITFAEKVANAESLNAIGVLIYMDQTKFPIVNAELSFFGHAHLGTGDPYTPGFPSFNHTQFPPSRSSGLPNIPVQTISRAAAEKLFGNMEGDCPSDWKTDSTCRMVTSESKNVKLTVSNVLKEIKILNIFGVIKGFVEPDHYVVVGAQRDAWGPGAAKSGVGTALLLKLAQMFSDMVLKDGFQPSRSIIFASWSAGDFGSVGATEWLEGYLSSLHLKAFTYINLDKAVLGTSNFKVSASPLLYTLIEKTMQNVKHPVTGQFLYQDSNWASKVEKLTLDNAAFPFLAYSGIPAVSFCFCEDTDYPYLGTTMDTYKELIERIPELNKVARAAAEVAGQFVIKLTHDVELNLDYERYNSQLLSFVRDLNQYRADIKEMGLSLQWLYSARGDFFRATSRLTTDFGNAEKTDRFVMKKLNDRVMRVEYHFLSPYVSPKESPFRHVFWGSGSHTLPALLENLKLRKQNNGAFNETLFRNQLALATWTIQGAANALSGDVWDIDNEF
Description: Molecular interactions between the synthesized peptides and the transferrin receptor (hTfR) were evaluated by surface plasmon resonance (SPR) using the following method. The specific assay procedure is described below.
An NTA sensor chip (Cytiva) was inserted in a Biacore T200 (Cytiva), a priming operation was performed 3 times with a running buffer: HBS-P+ pH 6.0 (Cytiva), and an equilibrium state was created at a flow rate of 30 µL/min. A ligand immobilization operation was carried out at a flow rate of 10 µL/min.
The surface of the NTA sensor chip was washed with 350 mM EDTA solution, nickel ions were loaded into the carbomethyldextran chains of the sensor chip with a 500 µM aqueous nickel chloride solution, and then washing was performed with 3 mM EDTA solution. After mixing 50 µL of each of 60 mM EDC solution (Cytiva) and 650 mM NHS solution (Cytiva), the mixture was reacted for 420 seconds at a flow rate of 10 µL/min. 150 µL of 0.2 µM hTfR solution was prepared by diluting with 10 mM acetic acid solution (pH 5.0), and reacted for 420 seconds at a flow rate of 10 µL/min to immobilize hTfR on the NTA sensor chip. For the human transferrin receptor (hTfR), the recombinant hTfR described in Example 2 of WO2018/124121 was used. After immobilization, capping was performed by reacting with 1.0 M ethanolamine aqueous solution (Cytiva) at a flow rate of 10 µL/min for 420 seconds. Peptide lysate prepared in DMSO to 10 mM was diluted with the running buffer to a final concentration of 10 µM peptide lysate, and then peptide solutions of 250 nM, 125 nM, 62.5 nM, 25 nM, and 12.5 nM were prepared. The kinetics of the peptide against hTfR was obtained by SPR measurement using the above samples.
The kinetic evaluation model was single-cycle kinetics, and curve fitting was performed using Biacore T200 Evaluation Software Version 3.0 (Cytiva). The binding of the peptide to hTfR was evaluated by performing curve fitting on the obtained sensorgram by the least squares method and obtaining the kon value, the koff value, and the KD value.

[2] = biological target: T1, human transferrin receptor (hTfR); test: SPR measurement under pH 7.4 conditions (Biacore T200, CM3 chip, hTfR captured by His Tag antibody); type: binding; conditions: pH 7.4, single-cycle kinetics; read-out: hTfR SPR pH7.4 KD

| Kd [1] | Kd [2] | SMILES |
| --- | --- | --- |
| 774 nM | 29.1 nM | CC[C@H](C)[C@@H]1NC(=O)[C@H](Cc2ccc(OCC(=O)O)cc2)NC(=O)[C@H](Cc2ccc(N)nc2)NC(=O)[C@H](CC(N)=O)NC(=O)[C@H](Cc2c[nH]c3ncccc23)NC(=O)[C@H](C(C)C)NC(=O)[C@H](Cc2cccc(Cl)c2)N(C)C(=O)[C@H](C(C)C)NC(=O)[C@H](C)NC(=O)CSC[C@@H](C(=O)NCCOCCOCCOCCOCCC(N)=O)NC(=O)[C@H](Cc2ccc(O)cc2)N(C)C(=O)[C@H](Cc2ccncc2)NC(=O)[C@H](CCCCNC(=O)N2CCN(CC(=O)O)CC2)NC(=O)[C@H](CCCCN2CCOCC2)NC(=O)[C@H]([C@@H](C)CC)NC1=O [compound 9] ({CH2CO}-AV[NMePhe(3-Cl)]V[Trp(7-aza)]N[3Pal(6-NH2)]Y(Carboxymethyl)II[Nle(6-morpholino)]K([CO-Piperazinyl(4-CH2COOH)])[4Pal][NMeY]C[PEG4]-NH2; thioether N-15) |
| 36.6 nM | 2.5 nM | CC[C@H](C)[C@@H]1NC(=O)[C@H](Cc2ccc(OC)cc2)NC(=O)[C@H](Cc2ccc(N)nc2)NC(=O)[C@H](CC(N)=O)NC(=O)[C@H](Cc2c[nH]c3ncccc23)NC(=O)[C@H](C(C)C)NC(=O)[C@H](Cc2cccc(Cl)c2)N(C)C(=O)[C@H](C(C)C)NC(=O)[C@H](C)NC(=O)CSC[C@@H](C(=O)NCCOCCOCCOCCOCCC(N)=O)NC(=O)[C@H](Cc2ccc(O)cc2)N(C)C(=O)[C@H](Cc2ccncc2)NC(=O)[C@H](CCCNC(=N)N)NC(=O)[C@H](CCC(=O)NC[C@H](O)[C@@H](O)[C@H](O)[C@H](O)CO)NC(=O)[C@H]([C@@H](C)CC)NC1=O [compound 10] |
| 110 nM | 7.1 nM | CC[C@H](C)[C@@H]1NC(=O)[C@H](Cc2ccc(OC)cc2)NC(=O)[C@H](Cc2ccc(N)nc2)NC(=O)[C@H](CC(N)=O)NC(=O)[C@H](Cc2c[nH]c3ncccc23)NC(=O)[C@H](C(C)C)NC(=O)[C@H](Cc2cccc(Cl)c2)N(C)C(=O)[C@H](C(C)C)NC(=O)[C@H](C)NC(=O)CSC[C@@H](C(=O)NCCOCCOCCOCCOCCC(N)=O)NC(=O)[C@H](Cc2ccc(O)cc2)N(C)C(=O)[C@H](Cc2ccncc2)NC(=O)[C@H](CCCNC(=N)N)NC(=O)[C@H](CCC(=O)NCCOCCOCCOCCOCCOCCOCCOCCOC)NC(=O)[C@H]([C@@H](C)CC)NC1=O [compound 11] |
| 137 nM | 7.12 nM | CC[C@H](C)[C@@H]1NC(=O)[C@H](Cc2ccc(OCC(=O)NC[C@H](O)[C@@H](O)[C@H](O)[C@H](O)CO)cc2)NC(=O)[C@H](Cc2ccc(N)nc2)NC(=O)[C@H](CC(N)=O)NC(=O)[C@H](Cc2c[nH]c3ncccc23)NC(=O)[C@H](C(C)C)NC(=O)[C@H](Cc2cccc(Cl)c2)N(C)C(=O)[C@H](C(C)C)NC(=O)[C@H](C)NC(=O)CSC[C@@H](C(=O)NCCOCCOCCOCCOCCC(N)=O)NC(=O)[C@H](Cc2ccc(O)cc2)N(C)C(=O)[C@H](Cc2ccncc2)NC(=O)[C@H](CCCNC(=N)N)NC(=O)[C@H](CCC(=O)NC[C@H](O)[C@@H](O)[C@H](O)[C@H](O)CO)NC(=O)[C@H]([C@@H](C)CC)NC1=O [compound 12] |
| 108 nM | 30.8 nM | CC[C@H](C)[C@@H]1NC(=O)[C@H](Cc2ccc(OCC(=O)O)cc2)NC(=O)[C@H](Cc2ccc(N)nc2)NC(=O)[C@H](CC(N)=O)NC(=O)[C@H](Cc2c[nH]c3ncccc23)NC(=O)[C@H](C(C)C)NC(=O)[C@H](Cc2cccc(Cl)c2)N(C)C(=O)[C@H](C(C)C)NC(=O)[C@H](C)NC(=O)CSC[C@@H](C(=O)NCCOCCOCCOCCOCCC(N)=O)NC(=O)[C@H](Cc2ccc(O)cc2)N(C)C(=O)[C@H](Cc2ccncc2)NC(=O)[C@H](CCCNC(=N)N)NC(=O)[C@H](CCCCNC(=O)N2CCN(CC(=O)O)CC2)NC(=O)[C@H]([C@@H](C)CC)NC1=O [compound 14] ({CH2CO}-AV[NMePhe(3-Cl)]V[Trp(7-aza)]N[3Pal(6-NH2)]Y(Carboxymethyl)IIK([CO-Piperazinyl(4-CH2COOH)])R[4Pal][NMeY]C[PEG4]-NH2; thioether N-15) |
| 102 nM | 15.9 nM | CC[C@H](C)[C@@H]1NC(=O)[C@H](Cc2ccc(OCC(=O)O)cc2)NC(=O)[C@H](Cc2ccc(N)nc2)NC(=O)[C@H](CC(N)=O)NC(=O)[C@H](Cc2c[nH]c3ncccc23)NC(=O)[C@H](C(C)C)NC(=O)[C@H](Cc2cccc(Cl)c2)N(C)C(=O)[C@H](C(C)C)NC(=O)[C@H](C)NC(=O)CSC[C@@H](C(=O)NCCOCCOCCOCCOCCC(N)=O)NC(=O)[C@H](Cc2ccc(O)cc2)N(C)C(=O)[C@H](Cc2ccncc2)NC(=O)[C@H](CCCCN2CCOCC2)NC(=O)[C@H](CCCCNC(=O)N2CCN(CC(=O)O)CC2)NC(=O)[C@H]([C@@H](C)CC)NC1=O [compound 15] ({CH2CO}-AV[NMePhe(3-Cl)]V[Trp(7-aza)]N[3Pal(6-NH2)]Y(Carboxymethyl)IIK([CO-Piperazinyl(4-CH2COOH)])[Nle(6-morpholino)][4Pal][NMeY]C[PEG4]-NH2; thioether N-15) |
| 40.3 nM | 2.94 nM | CC[C@H](C)[C@@H]1NC(=O)[C@H](Cc2ccc(OCC(=O)N3CCN(CC(=O)O)CC3)cc2)NC(=O)[C@H](Cc2ccc(O)cc2)NC(=O)[C@H](CC(N)=O)NC(=O)[C@H](Cc2c[nH]c3ncccc23)NC(=O)[C@H](C(C)C)NC(=O)[C@H](Cc2cccc(Cl)c2)N(C)C(=O)[C@H](C(C)C)NC(=O)[C@H](C)NC(=O)CSC[C@@H](C(=O)NCCOCCOCCOCCOCCC(N)=O)NC(=O)[C@H](Cc2ccc(O)cc2)N(C)C(=O)[C@H](Cc2ccncc2)NC(=O)[C@H](CCCNC(=N)N)NC(=O)[C@H](CCC(N)=O)NC(=O)[C@H]([C@@H](C)CC)NC1=O [compound 16] |
| 501 nM | 4.25 nM | CC[C@H](C)[C@@H]1NC(=O)[C@H](Cc2ccc(OCC(=O)N3CCN(CC(=O)O)CC3)cc2)NC(=O)[C@H](Cc2ccc(N)nc2)NC(=O)[C@H](CC(N)=O)NC(=O)[C@H](Cc2cn(CC(=O)O)c3ccccc23)NC(=O)[C@H](C(C)C)NC(=O)[C@H](Cc2cccc(Cl)c2)N(C)C(=O)[C@H](C(C)C)NC(=O)[C@H](C)NC(=O)CSC[C@@H](C(=O)NCCOCCOCCOCCOCCC(N)=O)NC(=O)[C@H](Cc2ccc(O)cc2)N(C)C(=O)[C@H](Cc2ccncc2)NC(=O)[C@H](CCCCN2CCOCC2)NC(=O)[C@H](CCCCNC(=O)N2CCN(CC(=O)O)CC2)NC(=O)[C@H]([C@@H](C)CC)NC1=O [compound 17] ({CH2CO}-AV[NMePhe(3-Cl)]V[Trp(1-CH2COOH)]N[3Pal(6-NH2)]Y(CH2CON(CH2CH2)2NCH2COOH)IIK([CO-Piperazinyl(4-CH2COOH)])[Nle(6-morpholino)][4Pal][NMeY]C[PEG4]-NH2; thioether N-15) |
| 30 nM | 1.88 nM | CC[C@H](C)[C@@H]1NC(=O)[C@H](Cc2ccc(OCC(=O)N3CCN(CC(=O)O)CC3)cc2)NC(=O)[C@H](Cc2ccc(O)cc2)NC(=O)[C@H](CC(N)=O)NC(=O)[C@H](Cc2c[nH]c3ncccc23)NC(=O)[C@H](C(C)C)NC(=O)[C@H](Cc2cccc(Cl)c2)N(C)C(=O)[C@H](C(C)C)NC(=O)[C@H](C)NC(=O)CSC[C@@H](C(=O)NCCOCCOCCOCCOCCC(N)=O)NC(=O)[C@H](Cc2ccc(O)cc2)N(C)C(=O)[C@H](Cc2ccncc2)NC(=O)[C@H](CCCNC(=N)N)NC(=O)[C@H](CCCCNC(=O)N2CCN(CC(=O)O)CC2)NC(=O)[C@H]([C@@H](C)CC)NC1=O [compound 18] |
| 7.92 nM | 4.82 nM | CC[C@H](C)[C@@H]1NC(=O)[C@H](Cc2ccc(OCC(=O)N3CCN(CC(=O)O)CC3)cc2)NC(=O)[C@H](Cc2ccc(O)cc2)NC(=O)[C@H](CC(N)=O)NC(=O)[C@H](Cc2c[nH]c3ncccc23)NC(=O)[C@H](C(C)C)NC(=O)[C@H](Cc2cccc(Cl)c2)N(C)C(=O)[C@H](C(C)C)NC(=O)[C@H](C)NC(=O)CSC[C@@H](C(=O)NCCOCCOCCOCCOCCC(N)=O)NC(=O)[C@H](Cc2ccc(O)cc2)N(C)C(=O)[C@H](Cc2ccncc2)NC(=O)[C@H](CCCCN2CCOCC2)NC(=O)[C@H](CCCCNC(=O)N2CCN(CC(=O)O)CC2)NC(=O)[C@H]([C@@H](C)CC)NC1=O [compound 19] ({CH2CO}-AV[NMePhe(3-Cl)]V[Trp(7-aza)]NYY(CH2CON(CH2CH2)2NCH2COOH)IIK([CO-Piperazinyl(4-CH2COOH)])[Nle(6-morpholino)][4Pal][NMeY]C[PEG4]-NH2; thioether N-15) |
